Source: patent US10934298B2, “Substituted pyrazolo[1,5-a]pyrimidines for the treatment of medical disorders” (BIAL—BioTech Investments, Inc., priority 2016, dated 2021)

Biological target: T1, glucocerebrosidase (Gcase) (Homo sapiens, UniProt P04062)
T1 construct: micellar solution containing 10 nM GCase and 100 nM saposin C
T1 sequence (P04062 40-536): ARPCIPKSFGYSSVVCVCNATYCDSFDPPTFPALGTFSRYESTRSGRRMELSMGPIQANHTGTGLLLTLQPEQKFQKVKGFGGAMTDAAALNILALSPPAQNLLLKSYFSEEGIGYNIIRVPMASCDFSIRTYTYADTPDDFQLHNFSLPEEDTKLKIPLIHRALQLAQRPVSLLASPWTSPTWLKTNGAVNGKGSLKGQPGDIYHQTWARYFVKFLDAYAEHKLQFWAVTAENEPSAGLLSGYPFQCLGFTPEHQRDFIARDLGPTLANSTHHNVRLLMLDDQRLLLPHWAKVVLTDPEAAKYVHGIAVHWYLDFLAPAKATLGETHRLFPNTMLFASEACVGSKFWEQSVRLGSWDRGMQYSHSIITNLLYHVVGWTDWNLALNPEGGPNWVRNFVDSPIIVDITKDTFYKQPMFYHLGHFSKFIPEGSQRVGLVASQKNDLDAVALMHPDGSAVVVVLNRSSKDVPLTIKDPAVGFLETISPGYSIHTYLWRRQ
Test: Glucocerebrosidase (Gcase) activation assay with 4-methylumbelliferyl-beta-D-glucopyranoside substrate, saposin C and phosphatidylserine/triton micelles, fluorescence readout
Assay type: biochemical
Method in brief: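 Test compounds are first screened at 1.0 and 0.1 μM final, then titrated in 8 points (3-fold from 5 μM) against human GCase with saposin C in phosphatidylserine/triton X-100 micelles at pH 4.7. Reactions run 15 min at room temperature, with fluorescence read at 365/440 nm.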

Percent Gcase Activation, 0.1 μM Test Compound (test compound at 0.1 μM)	Percent Gcase Activation, 1 μM Test Compound (test compound at 1.0 μM)	SMILES	also measured
*** (greater than 20% Gcase activation)	+++ (Gcase activation greater than 60%)	C#CC(NC(=O)c1cnn2c(C)cc(-c3cccc(OC)c3)nc12)C(F)(F)F (centres unmarked) [III-96]	
*** (greater than 20% Gcase activation)	+++ (Gcase activation greater than 60%)	Cc1cc(-c2ccc(F)cc2)nc2c(C(=O)NC(C)C(F)(F)F)cnn12 (centres unmarked) [III-164]	
*** (greater than 20% Gcase activation)	+++ (Gcase activation greater than 60%)	Cc1cc(-c2ncccc2Cl)nc2c(C(=O)NC(C3CC3)C(F)(F)F)cnn12 (centres unmarked) [III-206]	
*** (greater than 20% Gcase activation)	+++ (Gcase activation greater than 60%)	Cc1cc(-c2cccnc2)nc2c(C(=O)N[C@H](C3CC3)C(F)(F)F)cnn12 [III-88]	
*** (greater than 20% Gcase activation)	+++ (Gcase activation greater than 60%)	Cc1cc(-c2ccc3ocnc3c2)nc2c(C(=O)N[C@@H](C3CC3)C(F)(F)F)cnn12 [III-110]	
*** (greater than 20% Gcase activation)	+++ (Gcase activation greater than 60%)	Cc1cc(-c2ccc(Cl)nc2)nc2c(C(=O)N[C@H](C3CC3)C(F)(F)F)cnn12 [III-117]	

Further lines, the compound ahead of its results:

SMILES	Percent Gcase Activation, 0.1 μM Test Compound (test compound at 0.1 μM)	Percent Gcase Activation, 1 μM Test Compound (test compound at 1.0 μM)	also measured
Cc1cc(-c2ccnnc2)nc2c(C(=O)NC(C3CC3)C(F)(F)F)cnn12 (centres unmarked) [III-325]			Percent Gcase Activation, 0.1 μM Test Compound (0.1 μM test compound): * (less than 10% Gcase activation); Percent Gcase Activation, 1 μM Test Compound (1 μM test compound): + (less than 30% Gcase activation)
Cc1cc(-c2ccc3ncn(C)c3c2)nc2c(C(=O)NC(C3CC3)C(F)(F)F)cnn12 (centres unmarked) [III-304]			Percent Gcase Activation, 0.1 μM Test Compound (0.1 μM test compound): ** (Gcase activation in the range of 10% up to 20%); Percent Gcase Activation, 1 μM Test Compound (1 μM test compound): +++ (Gcase activation greater than 60%)
Cc1cc(-c2cccnc2C(F)(F)F)nc2c(C(=O)N[C@@H](C3CC3)C(F)(F)F)cnn12 [III-356]			Percent Gcase Activation, 0.1 μM Test Compound (0.1 μM test compound): *** (greater than 20% Gcase activation); Percent Gcase Activation, 1 μM Test Compound (1 μM test compound): +++ (Gcase activation greater than 60%)
COc1c(C#N)cccc1-c1cc(C)n2ncc(C(=O)N[C@H](C)C3CC3)c2n1 [III-144]	* (less than 10% Gcase activation)	+ (less than 30% Gcase activation)	
Cc1sncc1-c1cc(C)n2ncc(C(=O)N[C@H](C3CC3)C(F)(F)F)c2n1 [III-387]			Percent Gcase Activation, 0.1 μM Test Compound (0.1 μM test compound): *** (greater than 20% Gcase activation); Percent Gcase Activation, 1 μM Test Compound (1 μM test compound): +++ (Gcase activation greater than 60%)
Cc1cc(-c2cccc(F)c2C#N)nc2c(C(=O)N[C@@H](C)C(F)(F)F)cnn12 [III-399]			Percent Gcase Activation, 0.1 μM Test Compound (0.1 μM test compound): *** (greater than 20% Gcase activation); Percent Gcase Activation, 1 μM Test Compound (1 μM test compound): +++ (Gcase activation greater than 60%)
Cc1cccc(-c2cc(C)n3ncc(C(=O)N[C@@H](C4CC4)C(F)(F)F)c3n2)n1 [III-382]			Percent Gcase Activation, 0.1 μM Test Compound (0.1 μM test compound): *** (greater than 20% Gcase activation); Percent Gcase Activation, 1 μM Test Compound (1 μM test compound): +++ (Gcase activation greater than 60%)
Cc1cc(Cl)nc2c(C(=O)NC(C)(C)C3CC3)cnn12 [III-15]			Percent Gcase Activation, 0.1 μM Test Compound (0.1 μM test compound, Table 3A): *** (greater than 20% Gcase activation); Percent Gcase Activation, 1 μM Test Compound (1 μM test compound, Table 3A): +++ (Gcase activation greater than 60%)
COc1cc(-c2cc(C)n3ncc(C(=O)N[C@@H](C)C4CC4)c3n2)ccc1F [III-145]	*** (greater than 20% Gcase activation)	+++ (Gcase activation greater than 60%)	
C#CC(C)(C)NC(=O)c1cnn2c(C)cc(-c3cccc(OC)c3)nc12 [III-69]			Percent Gcase Activation, 0.1 μM Test Compound (0.1 μM test compound, Table 3A): *** (greater than 20% Gcase activation); Percent Gcase Activation, 1 μM Test Compound (1 μM test compound, Table 3A): +++ (Gcase activation greater than 60%)
Cc1ccc(-c2cc(C)n3ncc(C(=O)NC(C)C(F)(F)F)c3n2)cn1 (centres unmarked) [III-283]			Percent Gcase Activation, 0.1 μM Test Compound (0.1 μM test compound): * (less than 10% Gcase activation); Percent Gcase Activation, 1 μM Test Compound (1 μM test compound): ++ (Gcase activation in the range of 30% up to 60%)
Cc1cc(N2CCCN(C(C)C)C2=O)nc2c(C(=O)NC(C)(C)C3CC3)cnn12 [III-261]	* (less than 10% Gcase activation)	+ (less than 30% Gcase activation)	
C#CC(NC(=O)c1cnn2c(C)cc(-c3cccc(Cl)c3)nc12)C(F)(F)F (centres unmarked) [III-99]	*** (greater than 20% Gcase activation)	++ (Gcase activation in the range of 30% up to 60%)	
CCc1cc(-c2ccccn2)nc2c(C(=O)NC(C)C(F)(F)F)cnn12 (centres unmarked) [III-52]			Percent Gcase Activation, 0.1 μM Test Compound (0.1 μM test compound, Table 3A): * (less than 10% Gcase activation); Percent Gcase Activation, 1 μM Test Compound (1 μM test compound, Table 3A): +++ (Gcase activation greater than 60%)
Cc1cc(-c2cccc(F)c2)nc2c(C(=O)N[C@@H](C)C(F)(F)F)cnn12 [III-362]			Percent Gcase Activation, 0.1 μM Test Compound (0.1 μM test compound): *** (greater than 20% Gcase activation); Percent Gcase Activation, 1 μM Test Compound (1 μM test compound): +++ (Gcase activation greater than 60%)
Cc1cc(-c2cccc(C#N)c2)nc2c(C(=O)N[C@H](C)C3CC3)cnn12 [III-93]	** (Gcase activation in the range of 10% up to 20%)	+++ (Gcase activation greater than 60%)	

SMILES	Percent Gcase Activation, 0.1 μM Test Compound (test compound at 0.1 μM)	Percent Gcase Activation, 1 μM Test Compound (test compound at 1.0 μM)	also measured
Cc1cc(-c2cccnc2)nc2c(C(=O)N[C@H]3CC[C@H](OC(C)(C)C)CC3)cnn12 [III-38]			Percent Gcase Activation, 0.1 μM Test Compound (0.1 μM test compound, Table 3A): * (less than 10% Gcase activation); Percent Gcase Activation, 1 μM Test Compound (1 μM test compound, Table 3A): + (less than 30% Gcase activation)
Cc1cc(C#N)nc2c(C(=O)N[C@@H](C3CC3)C(F)(F)F)cnn12 [III-395]			Percent Gcase Activation, 0.1 μM Test Compound (0.1 μM test compound): * (less than 10% Gcase activation); Percent Gcase Activation, 1 μM Test Compound (1 μM test compound): ++ (Gcase activation in the range of 30% up to 60%)
Cc1cc(-c2nc3ccccc3n2C)nc2c(C(=O)NC(C3CC3)C(F)(F)F)cnn12 (centres unmarked) [III-312]			Percent Gcase Activation, 0.1 μM Test Compound (0.1 μM test compound): ** (Gcase activation in the range of 10% up to 20%); Percent Gcase Activation, 1 μM Test Compound (1 μM test compound): ++ (Gcase activation in the range of 30% up to 60%)
COCc1cc(-c2ccc(F)cc2)nc2c(C(=O)N[C@@H](C)C3CC3)cnn12 [III-46]			Percent Gcase Activation, 0.1 μM Test Compound (0.1 μM test compound, Table 3A): * (less than 10% Gcase activation); Percent Gcase Activation, 1 μM Test Compound (1 μM test compound, Table 3A): ++ (Gcase activation in the range of 30% up to 60%)
Cc1cc(-c2cccc(F)c2)nc2c(C(=O)N[C@@H](C)C3CC3)cnn12 [III-56]			Percent Gcase Activation, 0.1 μM Test Compound (0.1 μM test compound, Table 3A): *** (greater than 20% Gcase activation); Percent Gcase Activation, 1 μM Test Compound (1 μM test compound, Table 3A): +++ (Gcase activation greater than 60%)
Cc1cc(N2CCN(C(C)C)C2=O)nc2c(C(=O)NC(C)C(F)(F)F)cnn12 (centres unmarked) [III-227]	* (less than 10% Gcase activation)	+ (less than 30% Gcase activation)	
Cc1cc(-c2ccc3c(c2)OCO3)nc2c(C(=O)N[C@@H](C)C3CC3)cnn12 [III-210]	*** (greater than 20% Gcase activation)	+++ (Gcase activation greater than 60%)	
Cc1cc(-c2cccc(C(N)=O)n2)nc2c(C(=O)NC(C3CC3)C(F)(F)F)cnn12 (centres unmarked) [III-161]	* (less than 10% Gcase activation)	+++ (Gcase activation greater than 60%)	
Cc1cc(-c2nccs2)nc2c(C(=O)NC(C3CC3)C(F)(F)F)cnn12 (centres unmarked) [III-209]	*** (greater than 20% Gcase activation)	+++ (Gcase activation greater than 60%)	
Cc1cc(-c2noc(C(C)C)n2)nc2c(C(=O)N[C@@H](C3CC3)C(F)(F)F)cnn12 [III-394]			Percent Gcase Activation, 0.1 μM Test Compound (0.1 μM test compound): *** (greater than 20% Gcase activation); Percent Gcase Activation, 1 μM Test Compound (1 μM test compound): +++ (Gcase activation greater than 60%)
COc1c(C#N)cccc1-c1cc(C)n2ncc(C(=O)NC(C)C(F)(F)F)c2n1 (centres unmarked) [III-142]	* (less than 10% Gcase activation)	+ (less than 30% Gcase activation)	
Cc1cc(N2CCCN(C(C)C)C2=O)nc2c(C(=O)NC(C)C(F)(F)F)cnn12 (centres unmarked) [III-259]	* (less than 10% Gcase activation)	+ (less than 30% Gcase activation)	
Cc1cc(-c2cccc3ocnc23)nc2c(C(=O)NC(C3CC3)C(F)(F)F)cnn12 (centres unmarked) [III-106]	*** (greater than 20% Gcase activation)	++ (Gcase activation in the range of 30% up to 60%)	
COc1c(F)cccc1-c1cc(C)n2ncc(C(=O)NC(C)C(F)(F)F)c2n1 (centres unmarked) [III-140]	** (Gcase activation in the range of 10% up to 20%)	+++ (Gcase activation greater than 60%)	
Cc1cc(-c2cccc(C#N)c2)nc2c(C(=O)NC(C)(C)C3CC3)cnn12 [III-71]			Percent Gcase Activation, 0.1 μM Test Compound (0.1 μM test compound, Table 3A): *** (greater than 20% Gcase activation); Percent Gcase Activation, 1 μM Test Compound (1 μM test compound, Table 3A): +++ (Gcase activation greater than 60%)
